In patent publication US6127337A, “Bivalent thrombin inhibitors” (National Research Council of Canada, priority 1993, dated 2000):
Values joined by “and” are separate entries in the source; they are usually repeats but may differ in a detail not shown here. Identical values can stand only once. Like-named read-outs stand apart in the source and are kept apart here.

How the values were obtained:
human thrombin [1] = target: T1, human thrombin (Homo sapiens, UniProt P00734); test: Inhibition of amidolytic activity of human thrombin (fluorogenic, Tos-Gly-Pro-Arg-AMC), Ki; assay type: biochemical
T1 construct: Human α-thrombin (3,000 NIH units/mg); purchased Sigma
Description: Materials. The chromogenic and fluorogenic substrates Tosyl-Gly-Pro-Arg-pNAand Tos-Gly-Pro-Arg-AMC were purchased from Boehringer Manheim and Sigma, respectively. […] Initial velocities were recorded at several inhibitor concentrations and kinetic parameters were determined by fitting the data to a general equation describing enzyme inhibition (Segel, 1975). The data were analyzed using the non-linear regression program RNLIN in the IMSL library (IMSL, 1987) on a microVAX™ 3500 computer. […] Fluorogenic assays were conducted using the same conditions and instrument as above operating in the fluorescence mode in the ratio (λex =383 nm, λem =455 nm) Fluorescence intensities were calibrated with 7-amino-4-methyl coumarin solution of known concentration
Determination of Thrombin Inhibitory Dissociation Constants KI
The steady-state velocity was then measured for a few minutes. The compounds of this invention were also pre-incubated with thrombin for 20 min at room temperature before adding the substrate. […] The kinetic data (the steady-state velocity at various concentrations of the substrate and the inhibitors) of the competitive inhibition was analyzed using the methods described by Segel (1975). A non-linear regression program, RNLIN in the IMSL library (IMSL, 1987), LMDER in MINPACK library (More et al., 1980) or Microsoft™ Excell™, was used to estimate the kinetic parameters (Km Vmax and Ki). The biological data are reported on tables I-V.

[2] = system: carotid injury-induced thrombosis; test: FeCl3 induced arterial injury model (carotid injury-induced thrombosis); assay type: in vivo; conditions: rat; for Dose to double occlusion time: control occlusion time 19 ± 1 min; for Dose to achieve patency at 60 min.: patency defined by no drop in vessel temperature
Description: […]: Rat, male, Sprague-Dawley. Weight: 375-450 g The FeCl3 induced arterial injury model assays were conducted according to Kurz, K. D., Main, […]., Thrombosis research 60; 269-280, 1990 and Schumacher, W. A. et al. J. pharmacology and experimental therapeutics 267; 1237-1242, 1993. Male, Sprague-Dawley (375-450 g) are anesthetized with Urethane (1500 mg/kg IP). Animals are laid on a heating pad which is maintained at 37° C. The carotid artery is approached through a midline cervical incision. Carefully blunt dissection is used to expose and isolate the vessel from the carotid sheath. Using forceps, the artery is lifted to provide clearance to insert two small polyethylene tubing (PE-205) underneath it. The temperature probe (Physitemp MT23/3 )TM is placed between the PE-205 and the artery. The vessel temperature is monitored for 60 minutes after application of FeCl3. Vessel temperature changes are recorded on a thermister (Cole-Palmer Model 08533-41). Injury is induced by application of a small disc (3 mm dia.) of WhatmanTM No.1 filter paper previously dipped in a 35% solution of FeCl3 on the carotid artery above the temperature probe. The site of the experiment is covered with in Aluminum foil in order to protect the FeCl3 from degradation by light. […] Before the start of the experiment, one blood sample is drawn (1 ml) in a tube of 0.105M buffered citrate solution (from the eye's sinus) and the animal is exsanguinated at the end. All the samples are kept on ice and centrifuged as soon as possible at 2000 Rpm for 10 min., 4° C. The plasma is analyzed in duplicate for activated partial thromboplastin time on a haemostasis analyzer (STAGO ST4TM). From a group of four animals, two arteries are stored at -80C for further analysis.

human thrombin [3] = target: T1, human thrombin; test: Fibrin clotting assay; assay type: biochemical
From the text: Abbreviations. The following abbreviations have been used in the specification: Abu, γ-aminobutyric acid; Ac, acetyl; Aca, ε-aminocaproic acid; Aca*, 8-aminocapylic acid; Acha, 1-aminocyclohexane-carboxylic acid; Ada, 12-aminododecanoic acid; AMC, 7-amino-4-methylcoumarin; Aua, 11-aminoundecanoic acid; Ava, δ-aminovaleric acid; Bal, β-alanine; Boc, tert-butyloxycarbonyl; BrBzs, 4-bromobenzenesulfonyl; Bzs, benzene sulfonyl; Cha, β-cyclohexylalanine; Fmoc, 9-fluorenylmethoxycarbonyl;FRE, fibrinogen recognition exo site; HPLC, high performance liquid chromatography; MD805, (2R,4R)-4-methyl-1-[N^α -(3-methyl-1,2,3,4-tetrahydro-8-quinolinesulphonyl-glycyl)-L-arginyl]-2-piperidine carboxylic acid; NAPAP, N^α (2-naphtyl-sulphonyl)-D,L-p-amidinophenylalanyl-piperidide; Nas, naphtylsulfonyl; Nle, norleucine; 3-TAPAP, N^α -(4-toluene-sulphonyl)-D,L-p-amidinophenylalanyl-piperidide; OBzl, benzylester; Pip, pipecolic acid; PPACK, D-Phe-Pro-Arg chloromethylketone; tBbs, 4-tert-butylbenzenesulfonyl; Tic, 1,2,3,4-tetrahydroisoquinoline-3-carboxylic acid; TipBs, 2,4,6 triisopropylbenzenesulfonyl; TFA, trifluoroacetic acid; Tos, tosyl; Tris, 2-amino-2-(hydroxymethyl)-1,3-propanediol. All amino acid residues are L-configuration unless otherwise indicated. IC50 is defined as the inhibitor concentration required to double the clotting time relative to the control; means of three determinants ±SEM.
The fibrin clotting assay was performed in 50 mM Tris HCl buffer (pH 7.52 at 37° C.) containing 0.1 M NaCl and 0.1% poly(ethylene glycol) 8000 with 9.0×10^-10 M (0.1 NIH unit/mL) and 0.03% (w/v) of the final concentrations of human thrombin and bovine fibrinogen, respectively, as reported elsewhere (Szewczuk et al., 1992). The clotting time was plotted against the inhibitor concentrations and the IC50 was estimated as the inhibitor concentration required to double the clotting time relative to the control.

[4] = given intravenously or subcutaneously, depending on the species; cited from earlier work
[5] = Table V, concentration to double the clotting time, read-out: IC50 (dtt)
[6] = Table I, active site directed inhibitors, human thrombin 6.0×10^-11 M, substrate 1-8×10^-5 M, read-out: Ki
[7] = Table I, inhibitor concentration required to double the clotting time, means of three ±SEM, read-out: IC50

Ki (human thrombin [1]; Table V, read-out: Ki) [nM] | IC50 (human thrombin [3]; [5]) [nM] | Ki (human thrombin [1]; [6]) [nM] | IC50 (human thrombin [3]; [7]) [nM] | Substance | Dose to double occlusion time [2] [mg/kg i.v. bolus] | Dose to achieve patency at 60 min. [2] [mg/kg i.v. bolus] | further results
1 | 12 | – | – | tert-butylbezenesulfonyl-Arg (D-Pipecolic acid)-(12-aminododecanoic acid)-4-aminobutyric acid)-Asp-Phe-Glu-Pro-Ile-Pro-Tyr-OH [BCH-2443] | > 4 | > 4 | –
0.8 | 4.1 | – | – | 4-bromobenzenesulfonyl-Arg (D-Pipecolic acid)-(12-aminododecanoic acid)-4-aminobutyric acid)- Asp-Phe-Glu-Pro-Ile-Pro-Tyr-OH [BCH-2733] | > 2 | > 2 | Ki (human thrombin [1]; read-out: Ki value): < 1 nM and 0.8 nM
270 | 1100 | – | – | tert-butylbezenesulfonyl-Arg (D-Pipecolic acid)-(12-aminododecanoic acid)-4-aminobutyric acid)-Asp-Phe-Glu-Pro-Ile-Pro-Tyr-OH [BCH-2736] | 4 | > 4 | –
5.5 | 55 | – | – | 2,4,6 triisopropylbenzensulfonyl-Arg (D-Pipecolic acid)-(12-aminododecanoicacid)-4-aminobutyric acid)-Asp-Phe-Glu-Pro-Ile-Pro-Tyr-OH [BCH-2444] | – | – | –

More lines, now with the values behind:

Substance | Ki (human thrombin [1]; Table V, read-out: Ki) [nM] | IC50 (human thrombin [3]; [5]) [nM] | Ki (human thrombin [1]; [6]) [nM] | IC50 (human thrombin [3]; [7]) [nM] | Dose to double occlusion time [2] [mg/kg i.v. bolus] | Dose to achieve patency at 60 min. [2] [mg/kg i.v. bolus] | further results
Dansyl-Arg-(L-Pip)-NH2 [Peptide P428] | – | – | 19100 ± 1300 | 37900 ± 1900 | – | – | –
Hirudin | – | – | – | – | – | – | half-life [4]: 30 to 60 min
Dansyl-Arg-(D-Pipecolic acid)-NH2 [Peptide P429] | – | – | 158 ± 57 | 430 ± 130 | – | – | –
α-naphthyl sulfonyl-arginyl D-pipecolic acid-(12-aminododecanoic acid)-4-aminobutyric acid)-Asp-Tyr-Glu-Pro-Ile-Pro-Glu-Glu-Ala-(L-β-cyclohexylalanine)-(D- Glu)-OH [Peptide P581] | – | – | – | – | 0.5 | 1 | Ki (human thrombin [1]; Table IV, no assay number given, read-out: Ki): 0.0145 ± 0.0009 nM
Dansyl-Arg-(D-Tic)-NH2 [Peptide P396] | – | – | 390 ± 20 | 820 ± 150 | – | – | –
Dansyl-Arg-(D-Pipecolic acid)-Abu-NH2 [Peptide P431] | – | – | 980 ± 130 | 2580 ± 680 | – | – | –
Dansyl-Arg-(L-Pip)-Abu-NH2 [Peptide P430] | – | – | 11600 ± 3300 | 39100 ± 7200 | – | – | –
